Data taken from patent publication US10570184B2, “GLP-1/glucagon receptor co-agonists for medical use” (Novo Nordisk A/S, priority 2014, dated 2020).
Starred links: 1 amine or outer side, 2 acyl side, 3 side chain; linkers in the order of their positions; H or OH if unused. Non-standard residues stand in square brackets, D forms with d. Residues, ends and D or L forms follow the SMILES beside them. Groups on a side chain read outwards from the residue. *: point of attachment. C18 diacid = O=C(O)CCCCCCCCCCCCCCCCC(=O)*; γGlu = O=C(O)[C@H](CCC(=O)[*:2])N[*:1]; Ac4c = NC1(C(=O)O)CCC1; AEEA = NCCOCCOCC(=O)O; Aib = CC(C)(N)C(=O)O

Experiments:
human GLP-1 receptor [1] = molecular target: T1, human GLP-1 receptor (Homo sapiens, UniProt P43220); test: Assay (I)(a) GLP-1 receptor activation, CRE luciferase reporter gene assay in BHK cells; format: cell-based; conditions: without presence of serum albumin; read-out: GLP-1R EC50 (pM) [Assay (I)(a)]
T1 construct: expressed in transfected cells; host or cells: membranes of BHK cells (parent BHKTS13), clone FCW467-12A
T1 sequence (P43220 24-463): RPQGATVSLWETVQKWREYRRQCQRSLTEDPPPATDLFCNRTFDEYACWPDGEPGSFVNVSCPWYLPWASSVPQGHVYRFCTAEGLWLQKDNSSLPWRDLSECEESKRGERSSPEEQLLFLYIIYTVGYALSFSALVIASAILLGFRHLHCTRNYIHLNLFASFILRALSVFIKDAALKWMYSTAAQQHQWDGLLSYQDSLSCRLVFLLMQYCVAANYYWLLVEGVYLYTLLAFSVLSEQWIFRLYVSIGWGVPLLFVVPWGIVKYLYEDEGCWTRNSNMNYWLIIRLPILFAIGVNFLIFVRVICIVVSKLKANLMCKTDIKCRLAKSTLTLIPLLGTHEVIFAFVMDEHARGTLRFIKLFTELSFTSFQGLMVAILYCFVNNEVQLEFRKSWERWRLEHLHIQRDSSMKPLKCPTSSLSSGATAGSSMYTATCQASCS
Procedure, shortened: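 Stable BHK clone expressing human GLP-1 receptor with CRE-driven firefly luciferase, 5×10EE3 cells/well in medium with 2% ovalbumin and 0.2% Pluronic F-68. Compounds at 1×10EE-13 to 1×10EE-6 M final, 3 h at 37° C.; luminescence read, EC50 (pM) from four-parameter fit.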

human GLP-1 receptor [2] = molecular target: T1, human GLP-1 receptor; test: Assay (II)(a) GLP-1 receptor binding, 125I-GLP-1 displacement SPA on BHK membranes; conditions: without presence of serum albumin; read-out: GLP-1R IC50 (nM) [Assay (II)(a)]
Procedure, shortened: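 Membranes from BHK cells (clone FCW467-12A) stably expressing human GLP-1R were incubated with serially diluted compounds (8×10EE-13 to 8×10EE-7 M before addition) and [125I]-GLP-1-(7-36)NH2 with WGA SPA beads, 2 h at 30° C, pH 7.4. IC50 taken from displacement by non-linear regression. Run at ≤0.001% or 2.0% final serum albumin.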

[3] = Assay (III) ThT fibrillation assay for physical stability; format: physicochemical; conditions: 250 μM in 10 mM HEPES buffer, 37° C., shaking 960 rpm
Source text: The purpose of this assay is to assess the physical stability of the glucagon derivatives of the invention in aqueous solutions. Low physical stability of a peptide may lead to amyloid fibril formation, which is observed as well-ordered, thread-like macromolecular structures in the sample, which eventually may lead to gel formation. This has traditionally been measured by visual inspection of the sample. However, that kind of measurement is very subjective and depending on the observer. Therefore, the application of a small molecule indicator probe is much more advantageous. Thioflavin T (ThT) is such a probe and has a distinct fluorescence signature when binding to fibrils [Naiki et al. (1989) Anal. Biochem. 177, 244-249; LeVine (1999) Methods. Enzymol. 309, 274-284]. […] The constant t0 is the time needed to reach 50% of maximum fluorescence. The two important parameters describing fibril formation are the lag-time calculated by t0−2τ and the apparent rate constant kapp 1/τ. Samples were prepared freshly before each assay. Each sample composition is described in the legends. The pH of the sample was adjusted to the desired value using appropriate amounts of concentrated NaOH and HCl. Thioflavin T was added to the samples from a stock solution in H2O to a final concentration of 1 μM. Sample aliquots of 200 μl (250 μM of the glucagon derivative in 10 mM HEPES buffer, pH 7.5) were placed in a 96 well microtiter plate (Packard OptiPlate™-96, white polystyrene). Usually, four or eight replica of each sample (corresponding to one test condition) were placed in one column of wells. The plate was sealed with Scotch Pad (Qiagen). Incubation at given temperature, shaking and measurement of the ThT fluorescence emission were done in a Fluoroskan Ascent FL fluorescence platereader (Thermo Labsystems). The temperature was adjusted to 37° C. The plate was incubated with orbital shaking adjusted to 960 rpm with an amplitude of 1 mm. Fluorescence measurement was done using excitation through a 444 nm filter and measurement of emission through a 485 nm filter. Each run was initiated by incubating the plate at the assay temperature for 10 min. The plate was measured every 20 minutes for a desired period of time. Between each measurement, the plate was shaken and heated as described. After completion of the ThT assay the four or eight replica of each sample was pooled and centrifuged at 20000 rpm for 30 minutes at 18° C. The supernatant was filtered through a 0.22 μm filter and an aliquot was transferred to a HPLC vial. The concentration of peptide in the initial sample and in the filtered supernatant was determined by reverse phase HPLC using an appropriate standard as reference. The percentage fraction the concentration of the filtered sample constituted of the initial sample concentration was reported as the recovery. The measurement points were saved in Microsoft Excel format for further processing and curve drawing and fitting was performed using GraphPad Prism. The background emission from ThT in the absence of fibrils was negligible. The data points are typically a mean of four or eight samples and shown with standard deviation error bars. Only data obtained in the same experiment (i.e. samples on the same plate) are presented in the same graph ensuring a relative measure of fibrillation between experiments. The data set may be fitted to Eq. (1).

Structure (SMILES)	EC50 (human GLP-1 receptor [1])	IC50 (human GLP-1 receptor [2])	ThT Assay Lag time (h) [Assay (III), pH 7.5] [3]
CC[C@H](C)[C@H](NC(=O)[C@H](CC(C)C)NC(=O)[C@H](Cc1c[nH]c2ccccc12)NC(=O)[C@H](CCC(N)=O)NC(=O)[C@@H](NC(=O)[C@H](Cc1ccccc1)NC(=O)[C@H](CC(=O)O)NC(=O)[C@H](CCCNC(=N)N)NC(=O)[C@H](C)NC(=O)[C@H](CCCNC(=N)N)NC(=O)[C@H](CCCNC(=N)N)NC(=O)[C@H](C)NC(=O)[C@H](CC(=O)O)NC(=O)[C@H](CC(C)C)NC(=O)[C@H](Cc1ccc(O)cc1)NC(=O)[C@H](CCCNC(=N)N)NC(=O)[C@H](CO)NC(=O)[C@H](CC(C)C)NC(=O)[C@H](CC(=O)O)NC(=O)[C@H](CO)NC(=O)[C@@H](NC(=O)[C@H](Cc1ccccc1)NC(=O)[C@@H](NC(=O)CNC(=O)[C@H](CCC(N)=O)NC(=O)C(C)(C)NC(=O)[C@@H](N)Cc1c[nH]cn1)[C@@H](C)O)[C@@H](C)O)C(C)C)C(=O)N[C@@H](CCCCNC(=O)CC[C@H](NC(=O)CC[C@H](NC(=O)CC[C@H](NC(=O)CCCCCCCCCCCCCCCCC(=O)O)C(=O)O)C(=O)O)C(=O)O)C(=O)N[C@H](C(N)=O)[C@@H](C)O [Chem. 14, N^ε28-[(4S)-4-carboxy-4-[[(4S)-4-carboxy-4-[[(4S)-4-carboxy-4-(17-carboxyheptadecanoylamino)butanoyl]amino]butanoyl]amino]butanoyl]-[Aib2,Leu10,Arg12,Ala16,Arg20,Ile27,Lys28]-Glucagon amide] (HELM PEPTIDE1{H.[Aib].Q.G.T.F.T.S.D.L.S.R.Y.L.D.A.R.R.A.R.D.F.V.Q.W.L.I.K.T.[am]}|PEPTIDE2{[O=C(O)CCCCCCCCCCCCCCCCC(=O)[*:2]].[gGlu].[gGlu].[gGlu]}$PEPTIDE1,PEPTIDE2,28:R3-4:R2$$$V2.0)	2 pM	0.1 nM	–
CC[C@H](C)[C@H](NC(=O)[C@H](CC(C)C)NC(=O)[C@H](Cc1c[nH]c2ccccc12)NC(=O)[C@H](CCC(N)=O)NC(=O)[C@@H](NC(=O)[C@H](Cc1ccccc1)NC(=O)[C@H](CCC(=O)O)NC(=O)[C@H](CCCNC(=N)N)NC(=O)[C@H](C)NC(=O)[C@H](CCCNC(=N)N)NC(=O)[C@H](CCCNC(=N)N)NC(=O)[C@H](CO)NC(=O)[C@H](CCC(=O)O)NC(=O)[C@H](CC(C)C)NC(=O)[C@H](Cc1ccc(O)cc1)NC(=O)[C@H](CCCCN)NC(=O)[C@H](CO)NC(=O)[C@@H](NC(=O)[C@H](CC(=O)O)NC(=O)[C@H](CO)NC(=O)[C@@H](NC(=O)[C@H](Cc1ccccc1)NC(=O)[C@@H](NC(=O)CNC(=O)[C@H](CCC(N)=O)NC(=O)C1(NC(=O)[C@@H](N)Cc2c[nH]cn2)CCC1)[C@@H](C)O)[C@@H](C)O)C(C)C)C(C)C)C(=O)N[C@@H](CCCCNC(=O)CC[C@H](NC(=O)CC[C@H](NC(=O)COCCOCCNC(=O)COCCOCCNC(=O)CC[C@H](NC(=O)CC[C@H](NC(=O)CCCCCCCCCCCCCCCCC(=O)O)C(=O)O)C(=O)O)C(=O)O)C(=O)O)C(=O)N[C@H](C(N)=O)[C@@H](C)O [Chem. 19, N^ε28-[(4S)-4-carboxy-4-[[(4S)-4-carboxy-4-[[2-[2-[2-[[2-[2-[2-[[(4S)-4-carboxy-4-[[(4S)-4-carboxy-4-(17-carboxyheptadecanoylamino)butanoyl]amino]butanoyl]amino]ethoxy]ethoxy]acetyl]amino]ethoxy]ethoxy]acetyl]amino]butanoyl]amino]butanoyl]-[Acb2,Val10,Glu15,Arg20,Glu21,Ile27,Lys28]-Glucagon amide] (H-H[Ac4c]QGTFTSDVSKYLESRRAREFVQWLIK([γGlu-γGlu-AEEA-AEEA-γGlu-γGlu-C18 diacid])T-NH2)	–	–	45.0 h
CC[C@H](C)[C@H](NC(=O)[C@H](CC(C)C)NC(=O)[C@H](Cc1c[nH]c2ccccc12)NC(=O)[C@H](CCC(N)=O)NC(=O)[C@@H](NC(=O)[C@H](Cc1ccccc1)NC(=O)[C@H](CC(=O)O)NC(=O)[C@H](CCCNC(=N)N)NC(=O)[C@H](C)NC(=O)[C@H](CCCNC(=N)N)NC(=O)[C@H](CCCNC(=N)N)NC(=O)[C@H](CC(C)C)NC(=O)[C@H](CC(=O)O)NC(=O)[C@H](CC(C)C)NC(=O)[C@H](Cc1ccc(O)cc1)NC(=O)[C@H](CCCCN)NC(=O)[C@H](CO)NC(=O)[C@H](CC(C)C)NC(=O)[C@H](CC(=O)O)NC(=O)[C@H](CO)NC(=O)[C@@H](NC(=O)[C@H](Cc1ccccc1)NC(=O)[C@@H](NC(=O)CNC(=O)[C@H](CCC(N)=O)NC(=O)C(C)(C)NC(=O)[C@@H](N)Cc1c[nH]cn1)[C@@H](C)O)[C@@H](C)O)C(C)C)C(=O)N[C@@H](CO)C(=O)N[C@@H](CCCCNC(=O)CC[C@H](NC(=O)CC[C@H](NC(=O)COCCOCCNC(=O)COCCOCCNC(=O)CC[C@H](NC(=O)CCCCCCCCCCCCCCCCC(=O)O)C(=O)O)C(=O)O)C(=O)O)C(N)=O [Chem. 29, N^ε29-[(4S)-4-carboxy-4-[[(4S)-4-carboxy-4-[[2-[2-[2-[[2-[2-[2-[[(4S)-4-carboxy-4-(17-carboxyheptadecanoylamino)butanoyl]amino]ethoxy]ethoxy]acetyl]amino]ethoxy]ethoxy]acetyl]amino]butanoyl]amino]butanoyl]-[Aib2,Leu10,Leu16,Arg20,Ile27,Ser28,Lys29]-Glucagon amide] (H-H[Aib]QGTFTSDLSKYLDLRRARDFVQWLISK([γGlu-γGlu-AEEA-AEEA-γGlu-C18 diacid])-NH2; N-terminus assumed)	–	–	45.0 h
CC[C@H](C)[C@H](NC(=O)[C@H](CC(C)C)NC(=O)[C@H](Cc1c[nH]c2ccccc12)NC(=O)[C@H](C)NC(=O)[C@@H](NC(=O)[C@H](Cc1ccccc1)NC(=O)[C@H](CC(=O)O)NC(=O)[C@H](CCCNC(=N)N)NC(=O)[C@H](C)NC(=O)[C@H](CCCNC(=N)N)NC(=O)[C@H](CCCNC(=N)N)NC(=O)[C@H](CC(C)C)NC(=O)[C@H](CC(=O)O)NC(=O)[C@H](CC(C)C)NC(=O)[C@H](Cc1ccc(O)cc1)NC(=O)[C@H](CCCCN)NC(=O)[C@H](CO)NC(=O)[C@H](CC(C)C)NC(=O)[C@H](CC(=O)O)NC(=O)[C@H](CO)NC(=O)[C@@H](NC(=O)[C@H](Cc1ccccc1)NC(=O)[C@@H](NC(=O)CNC(=O)[C@H](CCC(N)=O)NC(=O)C(C)(C)NC(=O)[C@@H](N)Cc1c[nH]cn1)[C@@H](C)O)[C@@H](C)O)C(C)C)C(=O)N[C@@H](CO)C(=O)N[C@@H](CCCCNC(=O)CC[C@H](NC(=O)CC[C@H](NC(=O)COCCOCCNC(=O)COCCOCCNC(=O)CC[C@H](NC(=O)CCCCCCCCCCCCCCCCC(=O)O)C(=O)O)C(=O)O)C(=O)O)C(N)=O [Chem. 31, N^ε29-[(4S)-4-carboxy-4-[[(4S)-4-carboxy-4-[[2-[2-[2-[[2-[2-[2-[[(4S)-4-carboxy-4-(17-carboxyheptadecanoylamino)butanoyl]amino]ethoxy]ethoxy]acetyl]amino]ethoxy]ethoxy]acetyl]amino]butanoyl]amino]butanoyl]-[Aib2,Leu10,Leu16,Arg20,Ala24,Ile27,Ser28,Lys29]-Glucagon amide] (H-H[Aib]QGTFTSDLSKYLDLRRARDFVAWLISK([γGlu-γGlu-AEEA-AEEA-γGlu-C18 diacid])-NH2; N-terminus assumed)	–	–	45.0 h
